# Reference: ChEMBL document CHEMBL5512624, “OSMAC Strategy: A promising way to explore microbial cyclic peptides” (Eur J Med Chem, 2024)
# Numbered stars: 1 amine (or outer) side, 2 acyl side, 3 side chain; on linkers, the order of the positions; unused ones are H or OH. Square brackets hold non-standard residues; d marks the D form. Peptide text beside a SMILES is read from it. X5 = C=C(N[*:1])c1nc(-c2nc(C(=O)[*:2])ccc2-c2nccs2)co1; X1 = CCC(C)CCCCCCCCCCC[C@H](N[*:1])C(=O)[*:2]; X7 = CC(C)CCCCCCCCCCC[C@H](N[*:1])C(=O)[*:2]; X2 = CCC(C)CCCCCCCCC[C@H](N[*:1])C(=O)[*:2]; X6 = CC(C)CCCCCCCCCC[C@H](N[*:1])C(=O)[*:2]; X8 = CCCCCCCCCCCCCC[C@H](N[*:1])C(=O)[*:2]; Gly(Dodecyl) = CCCCCCCCCCCC[C@H](N)C(=O)O; X3 = C/C=C(\N[*:1])c1nc(C(=O)[*:2])co1; X4 = C=C(N[*:1])c1nc(C(=O)[*:2])c(C)o1; NMeY = CN[C@@H](Cc1ccc(O)cc1)C(=O)O; Val(3-OH) = CC(C)(O)[C@H](N)C(=O)O; Dha = C=C(N)C(=O)O
# Assays:
# [1] = Inhibition rat liver microsome ACAT; type: microsomes
# [2] = system: SW480; experiment: Cytotoxicity against human SW480 cells assessed as reduction in cell viability incubated for 24 hrs by MTT assay; type: functional, cell-based; settings: SW480, 24 h
# [3] = system: HL-60; experiment: Cytotoxicity against human HL-60 cells assessed as reduction in cell viability incubated for 24 hrs by MTT assay; type: functional, cell-based; settings: HL-60, 24 h
# [4] = system: MCF7; experiment: Cytotoxicity against human MCF7 cells assessed as reduction in cell viability incubated for 24 hrs by MTT assay; type: functional, cell-based; settings: MCF7, 24 h
# [5] = system: Aspergillus fumigatus; experiment: Antifungal activity against Aspergillus fumigatus ATCC 46645 assessed as fungal growth inhibition incubated for 24 hrs by CLSI protocol based broth microdilution method; type: functional, organism-based; settings: ATCC 46645, 24 h
# [6] = system: Influenza A virus; experiment: Antiviral activity against Influenza A virus H9N2 infected in MDCK cells assessed as inhibition of viral replication; type: functional, organism-based
# [7] = system: Aspergillus niger; experiment: Antifungal activity against Aspergillus niger assessed as fungal growth inhibition; type: functional
# [8] = system: Human alphaherpesvirus 1; experiment: Antiviral activity against HSV-1 infected in African green monkey Vero cells by plaque reduction assay; type: functional, organism-based; settings: Human alphaherpesvirus 1, Vero
# [9] = system: Plasmodium falciparum; experiment: Antiplasmodial activity against Plasmodium falciparum 3D7 assessed as reduction in parasite growth incubated for 72 hrs by SYBR Green dye based fluorescence assay; type: functional, organism-based; settings: 3D7, 72 h
# [10] = system: Trypanosoma cruzi; experiment: Antitrypanosomal activity against Trypanosoma cruzi amastigote assessed as parasite growth inhibition incubated for 24 hrs by light microscopic analysis; type: functional, organism-based
structure (smiles),measurement,setting,value
CC(C)[C@H]1OC(=O)[C@H](Cc2ccccc2)N(C)C(=O)[C@@H](C(C)C)OC(=O)[C@H](Cc2ccccc2)N(C)C(=O)[C@@H](C(C)C)OC(=O)[C@H](Cc2ccccc2)N(C)C1=O,IC50,[1],3 µM
CC[C@H](C)[C@@H]1NC(=O)[C@@H]2[C@H](C)CCN2C(=O)[C@H](C[C@H](O)CCl)OC(=O)CCNC(=O)[C@@H](C)N(C)C(=O)[C@H]([C@@H](C)CC)N(C)C1=O,IC50,[2],0.107 µM
same,IC50,[3],0.149 µM
same,IC50,[4],0.079 µM
CCCCCCC/C=C/C=C/C=C/[C@H](C[C@H](O)C[C@H]1NC(=O)[C@H](C[C@H](O)CO)NC(=O)[C@@H](CC(N)=O)NC(=O)[C@H](C[C@H](O)CO)NC(=O)[C@H](C)CNC(=O)[C@H]1O)OC,IC50,[5],4 µM
C=C(NC(=O)c1nc(C(=C)NC(=O)[C@@H](NC(=O)C(=C)NC(=O)c2coc(/C(=C/C)NC(=O)[C@@H](NC(C)=O)[C@@H](C)O)n2)C(C)C)oc1C)C(=O)NC(=C)c1nc(-c2nc(C(N)=O)ccc2-c2nccs2)co1,IC50,[6],28.7 µM
CCCCCCC/C=C/C=C/C=C/[C@H](C[C@H](O)C[C@@H]1CC(=O)NC[C@@H](C)C(=O)N[C@@H](C[C@H](O)CO)C(=O)N[C@H](CC(N)=O)C(=O)N[C@@H](C[C@H](O)CO)C(=O)N1)OC,IC50,[5],4 µM
CCCCCCC/C=C/C=C/C=C/[C@H](C[C@H](O)C[C@H]1NC(=O)[C@H](C[C@H](O)CO)NC(=O)[C@@H](CC(N)=O)NC(=O)[C@H](CC(N)=O)NC(=O)[C@H](C)CNC(=O)[C@H]1O)OC,IC50,[5],4 µM
CCCCCCC/C=C/C=C/C=C/[C@H](C[C@H](O)C[C@@H]1CC(=O)NC[C@@H](C)C(=O)N[C@@H](CC(N)=O)C(=O)N[C@H](CC(N)=O)C(=O)N[C@@H](C[C@H](O)CO)C(=O)N1)OC,IC50,[5],4 µM
CCCCCCC/C=C/C=C/C=C/[C@H](C[C@H](O)C[C@H]1NC(=O)[C@H](C[C@H](O)C(C)O)NC(=O)[C@@H](CC(N)=O)NC(=O)[C@H](CC(N)=O)NC(=O)[C@H](C)CNC(=O)[C@H]1O)OC (some centres not stated),IC50,[5],4 µM
C=C(NC(=O)C(=C)NC(=O)c1ccc(-c2nccs2)c(-c2coc(C(=C)NC(=O)C(=C)NC(=O)c3nc(C(=C)NC(=O)[C@@H](NC(=O)C(=C)NC(=O)c4coc(/C(=C/C)NC(=O)[C@@H](NC(C)=O)[C@@H](C)O)n4)C(C)C)oc3C)n2)n1)C(N)=O (Ac-T[X3][Dha]V[X4][Dha][X5][Dha][Dha]-NH2),IC50,[6],18.3 µM
C=C(NC(=O)c1ccc(-c2nccs2)c(-c2coc(C(=C)NC(=O)C(=C)NC(=O)c3nc(C(=C)NC(=O)[C@@H](NC(=O)C(=C)NC(=O)c4coc(/C(=C/C)NC(=O)[C@@H](NC(C)=O)[C@@H](C)O)n4)C(C)(C)O)oc3C)n2)n1)C(N)=O (Ac-T[X3][Dha][Val(3-OH)][X4][Dha][X5][Dha]-NH2),IC50,[6],7.3 µM
C=C(NC(=O)C(=C)NC(=O)c1ccc(-c2nccs2)c(-c2coc(C(=C)NC(=O)C(=C)NC(=O)c3nc(C(=C)NC(=O)[C@@H](NC(=O)C(=C)NC(=O)c4coc(/C(=C/C)NC(=O)[C@@H](NC(C)=O)[C@@H](C)O)n4)C(C)(C)O)oc3C)n2)n1)C(N)=O (Ac-T[X3][Dha][Val(3-OH)][X4][Dha][X5][Dha][Dha]-NH2),IC50,[6],15.3 µM
CCCCCCCCCCCC[C@@H]1NC(=O)[C@@H]2CCCN2C(=O)[C@H](CCC(N)=O)NC(=O)[C@H](CC(N)=O)NC(=O)[C@H](CO)NC(=O)[C@H](CC(N)=O)NC(=O)[C@H](Cc2ccc(O)cc2)NC(=O)[C@H](CC(N)=O)NC1=O (cyclo(NQP[Gly(Dodecyl)]NYNS)),MIC,[7],3.12 µg/mL
CCC(C)CCCCCCCCCCC[C@@H]1NC(=O)[C@@H]2CCCN2C(=O)[C@H](CCC(N)=O)NC(=O)[C@H](CC(N)=O)NC(=O)[C@H](CO)NC(=O)[C@H](CC(N)=O)NC(=O)[C@H](Cc2ccc(O)cc2)NC(=O)[C@H](CC(N)=O)NC1=O (some centres not stated) (cyclo(NQP[X1]NYNS)),MIC,[7],3.12 µg/mL
CCC(C)CCCCCCCCC[C@@H]1NC(=O)[C@@H]2CCCN2C(=O)[C@H](CCC(N)=O)NC(=O)[C@H](CC(N)=O)NC(=O)[C@H](CO)NC(=O)[C@H](CC(N)=O)NC(=O)[C@H](Cc2ccc(O)cc2)NC(=O)[C@H](CC(N)=O)NC1=O (some centres not stated) (cyclo(NQP[X2]NYNS)),MIC,[7],3.12 µg/mL
CC(C)CCCCCCCCCC[C@@H]1NC(=O)[C@@H]2CCCN2C(=O)[C@H](CCC(N)=O)NC(=O)[C@H](CC(N)=O)NC(=O)[C@H](CO)NC(=O)[C@H](CC(N)=O)NC(=O)[C@H](Cc2ccc(O)cc2)NC(=O)[C@H](CC(N)=O)NC1=O (cyclo(NQP[X6]NYNS)),MIC,[7],3.12 µg/mL
CC(C)CCCCCCCCCCC[C@@H]1NC(=O)[C@@H]2CCCN2C(=O)[C@H](CCC(N)=O)NC(=O)[C@H](CC(N)=O)NC(=O)[C@H](CO)NC(=O)[C@H](CC(N)=O)NC(=O)[C@H](Cc2ccc(O)cc2)NC(=O)[C@H](CC(N)=O)NC1=O (cyclo(NQP[X7]NYNS)),MIC,[7],3.12 µg/mL
CCCCCCCCCCCCCC[C@@H]1NC(=O)[C@@H]2CCCN2C(=O)[C@H](CCC(N)=O)NC(=O)[C@H](CC(N)=O)NC(=O)[C@H](CO)NC(=O)[C@H](CC(N)=O)NC(=O)[C@H](Cc2ccc(O)cc2)NC(=O)[C@H](CC(N)=O)NC1=O (cyclo(NQP[X8]NYNS)),MIC,[7],3.12 µg/mL
COc1ccc(C[C@@H]2NC(=O)[C@@H]3CCCN3C(=O)[C@H](C(C)C)NC(=O)[C@H](Cc3ccc(O)cc3)N(C)C(=O)[C@H](Cc3ccc(OC)cc3)NC2=O)cc1 (cyclo([NMeY]VPY(Me)Y(Me))),IC50,[8],9.5 µM
COc1ccc2c3c([nH]c2c1)[C@H](C=C(C)C)N1C(=O)[C@@H]2CCCN2C(=O)[C@@H]1C3 [FUMITREMORGIN],IC50,[9],2.3 µM
same,IC50,[10],9.6 µM
